Experimental data: paper PMC2745359, “Engineering and validation of a novel lipid thin film for biomembrane modeling in lipophilicity determination of drugs and xenobiotics” (Journal of Biological Engineering, 2009)

How the values were obtained:
[1] = set-up: method as in PMID 17767395; conditions: clinical use; cited from earlier work
[2] = RPTLC lipophilicity determination on silica-supported leucaena oil (LO) lipid film
Source text: (§1) Liquid paraffin in n-hexane (5% w/v) was used as coating solution of silica gel support, to produce the layer which was taken as benchmark. Thin film of liquid paraffin was placed on the silica surface by ascending development of the TLC plates in the coating solution and allowing the plates to air dry afterwards.
(§2) The optimal film thickness was designed by testing the alternative films against array of LP benchmark requirements and constraint. Using nabumetone as model compound and varying the concentration of organic modifier (methanol) in the mobile phase, a plot of linear regression of Rm against methanol fraction was made for LP and all alternative LO layers. Rm was obtained from the expression [drawing 1] where Rf is the chromatographic retardation factor [5]. Retention behavior of nabumetone on LP was compared with its behavior on the alternative LO layers by statistical comparison of the slope (S, specific hydrophobic surface area) and y-intercept, (Rmw, basic lipophilicity parameter) of the regression plot of Rm versus methanol fraction. The retention behavior is described by the regression equation: Rm = Sφ + Rmw (where φ is the methanol fraction). Plate development cycle time for a specific methanol fraction (0.5) was set as design constraint. This was compared by recording the time required for the mobile phase (50% methanol) to traverse 7 cm path length of the various silica-supported layers.
(§3) The engineered lipid film was validated by comparing its performance with the prior art; liquid paraffin film and octadecysilane (ODS) bonded phase, which was selected as reference.
(§4) The computational model employed is a transformation of the planar chromatographic retardation factor Rf according to the following equation: […]
(§5) Linear regression of the Rm values against the fraction of methanol organic modifier in the mobile phase was performed according to the equation: […]
(§6) S, is the specific hydrophobic surface area, while Rmw is the basic lipophilicity parameter calculated from the chromatographic data. The ultimate derived lipophilicity parameter of interest is the isocratic chromatographic hydrophobicity index (φo), which signifies the methanol fraction that will produce half-maximum solute migration on the chromatogram for each compound. […] Derived lipophilicity parameter (φo) values were correlated with Log P and several ChemSketch calculated molecular descriptors to provide quantitative structure property relationships (QSPR) as previously described.

[3] = RPTLC lipophilicity determination on liquid paraffin (LP) film; conditions: 5% LP film; for S (specific hydrophobic surface area): slope of Rm vs methanol fraction; for φo (isocratic chromatographic hydrophobicity index): φo = -Rmw/S, methanol modifier; for Rmw (basic lipophilicity parameter): y-intercept of Rm vs methanol fraction
Source text: as §1, §2, §3, §4, §5, §6

[4] = RPTLC lipophilicity determination on octadecylsilane (ODS) bonded layer; conditions: for S (specific hydrophobic surface area): slope of Rm vs methanol fraction; for φo (isocratic chromatographic hydrophobicity index): φo = -Rmw/S, methanol modifier
Description: as §3, §4, §5, §6

[5] = ref 31 (ADBA), 32 (NPX), 33 (NBT), 34 (HF); cited from earlier work
[6] = 3.75% LO film, slope of Rm vs methanol fraction
[7] = 3.75% LO film, y-intercept of Rm vs methanol fraction
[8] = 3.75% LO film, φo = -Rmw/S, methanol modifier
[9] = ODS layer, y-intercept of Rm vs methanol fraction

Compound	S (specific hydrophobic surface area) [2, 6]	Rmw (basic lipophilicity parameter) [2, 7]	φo (isocratic chromatographic hydrophobicity index) [2, 8]	S (specific hydrophobic surface area) [3]	φo (isocratic chromatographic hydrophobicity index) [3]	S (specific hydrophobic surface area) ([4]; ODS layer)	Rmw (basic lipophilicity parameter) [4, 9]	φo (isocratic chromatographic hydrophobicity index) ([4]; ODS layer)	Log P (octanol/water) [5]	Rmw (basic lipophilicity parameter) [3]	also measured
CC(C)(C)c1ccc(C(O)CCCN2CCC(C(O)(c3ccccc3)c3ccccc3)CC2)cc1 (stereo not drawn) [Terfenadine, terfenadine]											Cardiotoxicity (QT prolongation) [1]: withdrawn from clinical use because of cardiotoxicity
Nc1c([N+](=O)[O-])cc(C(=O)O)cc1[N+](=O)[O-] [ADBA, 4-amino-3,5-dinitrobenzoic acid]	-8.84	-0.646	-0.073	-5.99	-0.081	-1.41	-0.102	-0.073	-1.50		
COc1ccc2cc(CCC(C)=O)ccc2c1 [Nabumetone, nabumetone]	-3.95	2.58	0.66	-3.48	0.70	-3.13		0.89	3.27	2.43	Rmw (basic lipophilicity parameter) ([2]; 1.25% LO film): 1.05; S (specific hydrophobic surface area) ([2]; 1.25% LO film): -2.33; φo (isocratic chromatographic hydrophobicity index) ([2]; 1.25% LO film): 0.45; Rmw (basic lipophilicity parameter) ([2]; 2.5% LO film): 1.94; S (specific hydrophobic surface area) ([2]; 2.5% LO film): -3.14; φo (isocratic chromatographic hydrophobicity index) ([2]; 2.5% LO film): 0.62; Rmw (basic lipophilicity parameter) ([2]; 5% LO film): 3.48; S (specific hydrophobic surface area) ([2]; 5% LO film): -4.67; φo (isocratic chromatographic hydrophobicity index) ([2]; 5% LO film): 0.75; Rmw (basic lipophilicity parameter) [4]: 2.77
CCCCN(CCCC)CCC(O)c1cc2c(Cl)cc(Cl)cc2c2cc(C(F)(F)F)ccc12 (stereo not drawn) [Halofantrine, halofantrine]	-8.13	8.40	1.03	-6.54	1.03	-4.55	4.94	1.09	3.25	6.76	
